Results taken from ChEMBL document CHEMBL1125225, “Delineating the pharmacophoric elements of huperzine A: importance of the unsaturated three-carbon bridge to its AChE inhibitory activity” (J Med Chem, 1991).

Molecular target: T1, Acetylcholinesterase (Rattus norvegicus, UniProt P37136)
T1 sequence (P37136 whole entry): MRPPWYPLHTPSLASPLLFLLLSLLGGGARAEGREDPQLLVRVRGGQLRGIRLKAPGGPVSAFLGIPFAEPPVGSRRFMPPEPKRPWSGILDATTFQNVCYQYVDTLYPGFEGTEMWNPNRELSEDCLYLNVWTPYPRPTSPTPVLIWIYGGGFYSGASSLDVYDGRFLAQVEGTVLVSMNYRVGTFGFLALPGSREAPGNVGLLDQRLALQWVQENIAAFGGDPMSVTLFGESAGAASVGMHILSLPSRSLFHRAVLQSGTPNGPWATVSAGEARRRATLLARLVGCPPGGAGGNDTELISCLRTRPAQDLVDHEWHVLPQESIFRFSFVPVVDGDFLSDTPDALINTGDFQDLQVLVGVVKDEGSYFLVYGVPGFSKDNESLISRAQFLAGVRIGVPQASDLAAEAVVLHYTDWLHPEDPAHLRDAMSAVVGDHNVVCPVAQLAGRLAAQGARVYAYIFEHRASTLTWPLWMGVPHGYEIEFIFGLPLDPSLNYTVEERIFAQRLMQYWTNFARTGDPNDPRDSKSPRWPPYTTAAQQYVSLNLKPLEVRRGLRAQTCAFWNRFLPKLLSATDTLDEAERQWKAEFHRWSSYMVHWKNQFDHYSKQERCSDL
Test: Compound was tested for its ability to inhibit the action of acetylcholinesterase isolated from rat brain cortex

Row | SMILES | IC50
1 | C/C=C1\CCc2[nH]c(=O)ccc2[C@]1(C)N | 338 µM
2 | CN(C)Cc1ccc(=O)[nH]c1 | > 900 µM
3 | NCc1ccc(O)nc1 | > 900 µM
4 | C/C=C1\C2CCC[C@]1(N)c1ccc(O)nc1C2 | 9.82 µM
